This is an account of results in paper PMC6177136, “Hybrid topoisomerase I and HDAC inhibitors as dual action anticancer agents” (PLoS ONE, 2018).

Molecules are shown by their SMILES.

One assay has as its system Acetylated Histone H4. Put plainly: Western blot, acetylation of histone H4 in NCI-H460 cells. The format is cell-based, Human. The settings on record: 24 h; SN38 0.05 μM, SAHA 5 μM, 3b and 3d 0.125–0.2–0.5 μM. The procedure:
(§1) The supernatant, containing the total proteins extracts, were transferred in new vials. The protein concentration was measured by Bradford Protein Assay. Equal amounts of proteins for each sample were then resolved by SDS-PAGE and loaded on 10–12% polyacrilamide gels. The proteins were then transferred on nitrocellulose membranes. Molecular weights were estimated based upon the relative migration with molecular weight protein markers.
(§2) The non-specific binding was blocked by incubation of membranes in TBS-tween (25 mM Tris, 150 mM NaCl, 0.1% Tween 20) with 5% nonfat dry milk (BIORAD, Milan) for 60 minutes. Subsequently, the membrane was incubated overnight with primary antibodies: anti-Histone H4 (Millipore, 1:500), anti-acetyl-H4 (Santa Cruz, 1:1000) anti-p21 (Santa Cruz, 1:1000), anti-acetyl-tubulin (abcam, 1:1000), anti-α-tubulin (Sigma, 1:5000), anti β-actin (Sigma, 1:5000) and anti-Topoisomerase 1 (Santa Cruz, 1:500). After three washes with TBST blots were incubated with HRP-coniugated secondary anti-mouse and anti-rabbit (Santa Cruz, 1:5000) 1 hour at room temperature. After three washes with TBST the blots were developed with ECL substrate (GE Healthcare) and chemiluminescence detected by ChemiDoc Imaging System (Biorad). The optical density of the protein bands detected by western blotting was normalized on α -tubulin levels and analyzed by ChemiDoc software (Biorad). […]
(In western blotting, separated proteins are transferred to a membrane and probed.)

The next assay concerns NCI-H460. Put plainly: Cytotoxicity assay (SRB, 72 h) NCI-H460. Conditions: Homo sapiens. Format: cell-based, Human.
Another assay concerns the target HDAC2 (Homo sapiens, UniProt Q92769). Nature of the assay: HDAC profiling HDAC2. Conditions: purified isoform, 10 concentrations from 10 μM, triplicate. Format: biochemical.
A further assay concerns Acetylated Tubulin. Nature of the assay: Western blot, acetylation of tubulin in NCI-H460 cells. The format is cell-based, Human. Conditions: 24 h; SN38 0.05 μM, SAHA 5 μM, 3b and 3d 0.125–0.2–0.5 μM. The procedure:
as §1, §2

The target in the next assay is HDAC1 (Homo sapiens, UniProt Q13547). Put plainly: HDAC profiling HDAC1. The format is biochemical. Conditions: purified isoform, 10 concentrations from 10 μM, triplicate.
The test system of another assay is Capan 1. Put plainly: Cytotoxicity assay (SRB, 72 h) Capan 1. Format: cell-based, Human. The settings on record: Homo sapiens, CAPAN-1, read-out: IC50 ± SD Capan 1.
The next assay has as its target HDAC6 (Homo sapiens, UniProt Q9UBN7). Nature of the assay: HDAC profiling HDAC6. The format is biochemical. Conditions: purified isoform, 10 concentrations from 10 μM, triplicate.
The target in another assay is HDAC10 (Homo sapiens, UniProt Q969S8). Put plainly: HDAC profiling HDAC10. Format: biochemical. The settings on record: purified isoform, 10 concentrations from 10 μM, triplicate.
Another assay relates to A431. Put plainly: Cytotoxicity assay (SRB, 72 h) A431. Format: cell-based, Human. Conditions: Homo sapiens, A-431, read-out: IC50 ± SD A431.
Another assay concerns A2780-Dx. Put plainly: Cytotoxicity assay (SRB, 72 h) A2780-Dx. Format: cell-based, Human.
In a further assay the test system is HeLa. Nature of the assay: Cytotoxicity assay (SRB, 72 h) HeLa. The format is cell-based, Human. The settings on record: Homo sapiens, HeLa, read-out: IC50 ± SD HeLa.
Another assay relates to A2780. Nature of the assay: Cytotoxicity assay (SRB, 72 h) A2780. The format is cell-based, Human. Conditions: Homo sapiens, A2780, read-out: IC50 ± SD A2780.

Sequence of HDAC2 (Q92769 whole entry, canonical isoform): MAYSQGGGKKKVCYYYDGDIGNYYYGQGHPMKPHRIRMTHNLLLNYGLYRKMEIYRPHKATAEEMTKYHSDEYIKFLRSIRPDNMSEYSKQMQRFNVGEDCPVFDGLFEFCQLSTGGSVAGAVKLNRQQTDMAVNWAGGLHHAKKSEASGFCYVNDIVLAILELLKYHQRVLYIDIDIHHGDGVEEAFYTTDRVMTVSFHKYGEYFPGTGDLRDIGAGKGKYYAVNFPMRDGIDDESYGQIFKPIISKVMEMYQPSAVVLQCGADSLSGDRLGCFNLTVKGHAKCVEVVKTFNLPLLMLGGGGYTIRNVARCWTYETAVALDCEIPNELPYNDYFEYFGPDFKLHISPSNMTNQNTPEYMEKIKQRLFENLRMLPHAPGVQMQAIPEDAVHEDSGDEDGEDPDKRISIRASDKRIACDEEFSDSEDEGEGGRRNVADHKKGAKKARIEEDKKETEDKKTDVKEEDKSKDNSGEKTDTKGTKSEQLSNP
Sequence of HDAC1 (Q13547 whole entry, canonical isoform): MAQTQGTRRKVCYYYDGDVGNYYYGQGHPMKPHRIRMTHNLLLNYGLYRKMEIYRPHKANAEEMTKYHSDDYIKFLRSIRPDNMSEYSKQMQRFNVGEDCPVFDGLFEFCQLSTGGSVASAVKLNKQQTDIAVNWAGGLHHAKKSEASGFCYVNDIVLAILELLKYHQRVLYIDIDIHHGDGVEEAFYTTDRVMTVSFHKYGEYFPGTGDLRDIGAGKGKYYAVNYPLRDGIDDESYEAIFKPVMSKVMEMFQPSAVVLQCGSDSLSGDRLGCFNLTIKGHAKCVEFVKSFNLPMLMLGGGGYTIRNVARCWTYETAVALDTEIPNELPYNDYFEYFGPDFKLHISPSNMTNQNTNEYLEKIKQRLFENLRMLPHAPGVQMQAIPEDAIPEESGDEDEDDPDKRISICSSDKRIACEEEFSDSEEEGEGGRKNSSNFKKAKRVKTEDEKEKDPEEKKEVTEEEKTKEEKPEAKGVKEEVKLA
Sequence of HDAC6 (Q9UBN7 whole entry, canonical isoform): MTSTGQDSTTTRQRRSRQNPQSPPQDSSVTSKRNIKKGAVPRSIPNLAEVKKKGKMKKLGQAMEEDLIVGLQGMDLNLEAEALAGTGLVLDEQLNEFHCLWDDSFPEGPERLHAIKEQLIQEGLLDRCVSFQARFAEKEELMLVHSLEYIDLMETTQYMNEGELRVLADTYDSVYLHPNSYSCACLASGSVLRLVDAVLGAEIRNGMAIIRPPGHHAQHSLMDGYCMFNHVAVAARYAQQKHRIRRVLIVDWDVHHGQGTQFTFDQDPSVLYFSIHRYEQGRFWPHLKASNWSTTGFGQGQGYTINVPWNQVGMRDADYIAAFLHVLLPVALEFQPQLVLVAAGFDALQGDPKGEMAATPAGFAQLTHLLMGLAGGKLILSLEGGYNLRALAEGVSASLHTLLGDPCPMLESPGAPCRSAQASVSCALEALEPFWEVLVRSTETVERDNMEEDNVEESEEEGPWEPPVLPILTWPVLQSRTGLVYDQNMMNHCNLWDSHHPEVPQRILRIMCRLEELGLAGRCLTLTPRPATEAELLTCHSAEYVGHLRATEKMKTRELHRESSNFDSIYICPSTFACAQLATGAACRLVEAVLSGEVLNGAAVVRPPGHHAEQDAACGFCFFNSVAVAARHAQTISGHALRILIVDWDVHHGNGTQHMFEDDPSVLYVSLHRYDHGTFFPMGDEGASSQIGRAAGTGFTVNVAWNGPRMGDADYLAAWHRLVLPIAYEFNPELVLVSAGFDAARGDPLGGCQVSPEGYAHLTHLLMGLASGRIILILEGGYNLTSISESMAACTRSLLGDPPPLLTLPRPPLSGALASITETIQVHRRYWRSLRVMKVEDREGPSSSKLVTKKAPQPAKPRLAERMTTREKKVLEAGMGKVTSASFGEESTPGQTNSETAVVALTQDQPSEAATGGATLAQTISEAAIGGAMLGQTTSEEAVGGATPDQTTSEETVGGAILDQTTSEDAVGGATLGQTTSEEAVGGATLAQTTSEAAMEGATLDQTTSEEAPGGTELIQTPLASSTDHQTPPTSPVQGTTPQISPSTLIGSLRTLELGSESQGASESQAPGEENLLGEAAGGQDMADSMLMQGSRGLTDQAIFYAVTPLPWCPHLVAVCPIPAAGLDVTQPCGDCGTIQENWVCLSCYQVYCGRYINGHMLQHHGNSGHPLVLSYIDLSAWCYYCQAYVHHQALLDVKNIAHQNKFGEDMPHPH
Sequence of HDAC10 (Q969S8 whole entry, canonical isoform): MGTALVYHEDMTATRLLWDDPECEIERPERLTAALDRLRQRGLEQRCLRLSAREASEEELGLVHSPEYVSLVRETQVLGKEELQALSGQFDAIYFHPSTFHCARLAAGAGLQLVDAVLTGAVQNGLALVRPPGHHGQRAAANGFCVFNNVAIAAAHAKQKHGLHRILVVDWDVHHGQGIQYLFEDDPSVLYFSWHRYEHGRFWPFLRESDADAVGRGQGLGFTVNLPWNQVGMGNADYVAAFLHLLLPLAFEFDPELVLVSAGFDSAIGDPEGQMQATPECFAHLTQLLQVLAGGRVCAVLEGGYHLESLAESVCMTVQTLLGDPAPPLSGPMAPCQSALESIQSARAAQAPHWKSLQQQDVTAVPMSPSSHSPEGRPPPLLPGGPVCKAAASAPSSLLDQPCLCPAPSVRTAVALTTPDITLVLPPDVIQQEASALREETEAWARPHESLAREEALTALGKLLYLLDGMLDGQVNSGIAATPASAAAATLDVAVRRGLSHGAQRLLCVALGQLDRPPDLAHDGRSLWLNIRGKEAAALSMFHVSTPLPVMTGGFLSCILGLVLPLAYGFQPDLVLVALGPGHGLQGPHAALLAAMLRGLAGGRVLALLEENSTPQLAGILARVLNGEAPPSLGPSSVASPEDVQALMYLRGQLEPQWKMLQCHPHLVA

With `CC[C@@]1(O)C(=O)OCc2c1cc1n(c2=O)Cc2c-1nc1ccccc1c2C=NOCCCCCC(=O)NO` [Compound 3b, 6-(camptothecin-7-ylmethyleneaminooxy)-hexanoic acid hydroxyamide], the “accumulation of acetylated histone H4” value with Acetylated Histone H4 is reported as “less potent than 3d on both targets, particularly on H4”. The IC50 came out at 23 ± 4 nM in the assay with NCI-H460 (NCI-H460, 72 h, SRB assay, read-out: IC50 ± SD NCI-H460); 76.2 nM at HDAC2; 43 nM on HDAC1; 6 ± 0.7 nM in the assay with Capan 1; 3.87 nM on HDAC6; 99.9 nM against HDAC10. Moreover, the concentration for half-maximal inhibition (IC50) in the assay on A431 is 4 ± 1 nM; in the assay on A2780-Dx (Homo sapiens, A2780/DX, 72 h, SRB assay, multidrug-resistant ovarian carcinoma, read-out: IC50 ± SD A2780-Dx) it was 270 ± 70 nM; with HeLa, 160 ± 40 nM; with A2780 it was 8 ± 2 nM. This compound also came in with an IC80 in the assay on NCI-H460 (NCI-H460 cells) of 500 nM. Moreover, in the assay on Acetylated Tubulin, the “accumulation of acetylated tubulin” value is listed as “less potent than 3d on both targets”. For the same compound, in the assay on A2780-Dx (A2780-Dx versus A2780), the “RI (Resistance Index)” value stood at 31.7.

By IC50 is commonly meant the concentration that inhibits the measured activity by half. In general, IC80 refers to the point of the concentration-response curve where the effect stands at 80%. A high value points to a need for much substance.
